The source of these data is US10729738B2, “Hindered disulfide drug conjugates” (priority 2015, dated 2020).

*1 amine or outer side, *2 acyl side, *3 side chain or, on linkers, in order; H or OH if unused. Where a SMILES comes first, the peptide text is derived from it. [ ]: non-standard residue; d: D form. The star is where a group is joined. Dolaproine = CO[C@@H]([C@@H]1CCCN1)[C@@H](C)C(=O)O; X15 = C[C@H](COC(=O)*)SSc1ccc([N+](=O)[O-])cn1; Dil = CC[C@H](C)[C@H](NC)[C@@H](CC(=O)O)OC; PABC = O=C(OCc1ccc(N[*:1])cc1)[*:2]; X2 = C[C@@H](N*)[C@@H](O)c1ccccc1; NMeV = CN[C@H](C(=O)O)C(C)C

In one test the test system is KPL-4 cells. As to the kind of experiment: In vitro IC50 of MMAE ADCs, Cell Titer-Glo, KPL-4. As to conditions: 5 days. In kind it is cell-based. Here is the method: (§1) The in vitro IC50 of ADC compounds MMAE 1, MMAE 2, MMAE 5 and MMAE 6 against SK-BR-3 and KPL-4 cells was evaluated. The cells were plated in 96-well plates (SK-BR-3 at 5000 cell per well; KPL-4 at 1500 cells […]) in cysteine free RPMI+10% FBS+20 mM glutamine+50 pM cysteine media and allowed to adhere overnight. Media was then removed and was replaced with fresh media containing different ADC concentrations. Cell viability was measured 5 days after drug administration using Cell Titer-Glo.

The test system of the next test is SK-BR-3 cells. In words: In vitro IC50 of MMAE ADCs, Cell Titer-Glo, SK-BR-3. In kind it is cell-based. As to conditions: 5 days. Here is the method:
as §1
A general note: Cellular ATP, detected with luciferase, serves as a proxy for viable cell number.

For `CC[C@H](C)[C@@H]([C@@H](CC(=O)N1CCC[C@H]1[C@H](OC)[C@@H](C)C(=O)N[C@H](C)[C@@H](O)c1ccccc1)OC)N(C)C(=O)[C@@H](NC(=O)[C@H](C(C)C)N(C)C(=O)OCc1ccc(NC(=O)OC[C@@H](C)SSc2ccc([N+](=O)[O-])cn2)cc1)C(C)C` [MMAE 6] ({X15-PABC}-[NMeV]V[Dil][Dolaproine]-X2), the “KPL-4 IC50” value in the test with KPL-4 cells amounted to 0.411 µg/mL. Also, the “SK-BR-3 IC50” value with SK-BR-3 cells was 0.78 µg/mL.
